Data as given in paper PMC6099706, “Anti-Mycobacterium tuberculosis Activity of Esters of Quinoxaline 1,4-Di-N-Oxide” (Molecules : A Journal of Synthetic Chemistry and Natural …, 2018).
Values after ≈ are worked out from the molar mass of the structure shown.

What was measured:
Assay in all cases: microbe, parasite or virus in culture
Type in all cases: cell-based
Settings in all cases: Mycobacterium tuberculosis
[1] = test system: M. tb H37Rv IR (isoniazid resistant)
[2] = test system: M. tb H37Rv ER (ethambutol resistant)
[3] = test system: M. tb H37Rv SR (streptomycin resistant)
[4] = test system: M. tb H37Rv RR (rifampicin resistant)

Row | Compound | MIC [1] | MIC [2] | MIC [3] | MIC [4]
1 | CCOC(=O)c1ccc2c(c1)[n+]([O-])c(C(C)=O)c(C(F)(F)F)[n+]2[O-] [Compound T-006] | 1.25 µg/mL (≈ 3.63 µM) | 1.25 µg/mL (≈ 3.63 µM) | 5 µg/mL (≈ 14.5 µM) | 1.25 µg/mL (≈ 3.63 µM)
2 | CCOC(=O)c1ccc2c(c1)[n+]([O-])c(C(=O)c1cccs1)c(C(F)(F)F)[n+]2[O-] [Compound T-011] | < 0.31 µg/mL | < 0.31 µg/mL | 0.625 µg/mL (≈ 1.52 µM) | < 0.31 µg/mL
3 | COC(=O)c1ccc2c(c1)[n+]([O-])c(C(=O)c1ccccc1)c(C(F)(F)F)[n+]2[O-] [Compound T-018] | 0.62 µg/mL (≈ 1.58 µM) | 0.62 µg/mL (≈ 1.58 µM) | 1.25 µg/mL (≈ 3.19 µM) | 0.625 µg/mL (≈ 1.59 µM)
4 | COC(=O)c1ccc2c(c1)[n+]([O-])c(C(=O)OC)c(C)[n+]2[O-] [Compound T-022] | 0.62 µg/mL (≈ 2.12 µM) | 0.62 µg/mL (≈ 2.12 µM) | 0.625 µg/mL (≈ 2.14 µM) | < 0.31 µg/mL
5 | CC(C)OC(=O)c1ccc2c(c1)[n+]([O-])c(C(=O)c1cccs1)c(C(F)(F)F)[n+]2[O-] [Compound T-069] | 0.62 µg/mL (≈ 1.45 µM) | 1.25 µg/mL (≈ 2.93 µM) | 1.25 µg/mL (≈ 2.93 µM) | 1.25 µg/mL (≈ 2.93 µM)
6 | CC(C)OC(=O)c1ccc2c(c1)[n+]([O-])c(C(=O)C(C)C)c(C(F)(F)F)[n+]2[O-] [Compound T-085] | < 0.31 µg/mL | < 0.31 µg/mL | 1.25 µg/mL (≈ 3.24 µM) | 0.625 µg/mL (≈ 1.62 µM)
7 | CCCOC(=O)c1ccc2c(c1)[n+]([O-])c(C(=O)OC)c(C)[n+]2[O-] [Compound T-088] | 0.62 µg/mL (≈ 1.94 µM) | < 0.31 µg/mL | 0.625 µg/mL (≈ 1.95 µM) | < 0.31 µg/mL
8 | CCCOC(=O)c1ccc2c(c1)[n+]([O-])c(C(=O)c1cccs1)c(C(F)(F)F)[n+]2[O-] [Compound T-089] | < 0.31 µg/mL | 0.625 µg/mL (≈ 1.47 µM) | 1.25 µg/mL (≈ 2.93 µM) | 1.25 µg/mL (≈ 2.93 µM)
9 | CO[C@H]1/C=C/O[C@@]2(C)Oc3c(C)c(O)c4c(O)c(c(/C=N/N5CCN(C)CC5)c(O)c4c3C2=O)NC(=O)/C(C)=C\C=C\[C@H](C)[C@H](O)[C@@H](C)[C@@H](O)[C@@H](C)[C@H](OC(C)=O)[C@@H]1C [RMP, rifampicin, reference compound] | < 0.06 µg/mL | < 0.06 µg/mL | < 0.06 µg/mL | > 2 µg/mL
